# In publication PMC9574860, “Chemical Toolkit for PARK7: Potent, Selective, and High-Throughput” (Journal of Medicinal Chemistry, 2022):
# Legend:
# PARK7 [1] = biological target: T1, PARK7 (Homo sapiens, UniProt Q99497); assay: Probe labeling of purified recombinant PARK7 (SDS-PAGE, fluorescence scanning); type: binding; parameters: GST (N, cleaved yes); made in house; host or cells: E. coli BL21(DE3) Rosetta2; conditions: purified PARK7 1 μM, 1 h 37 °C; Figure 4A
# T1 sequence (Q99497 1-189): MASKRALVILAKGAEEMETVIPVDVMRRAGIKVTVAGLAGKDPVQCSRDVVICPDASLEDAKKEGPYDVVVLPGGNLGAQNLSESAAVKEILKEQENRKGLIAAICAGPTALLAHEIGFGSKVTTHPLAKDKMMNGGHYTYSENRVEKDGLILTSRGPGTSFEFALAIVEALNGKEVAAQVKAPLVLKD
# Excerpt: PARK7 inhibitor JYQ-88 was further converted into activity-based probes by installing SulfoCy5, Rhodamine110, or BodipyFL. We took advantage of the azide moiety in JYQ-88 and conjugated alkyne versions of these dyes using the copper(I)-catalyzed azide alkyne cycloaddition (CuAAC) to obtain compounds JYQ-92, JYQ-93, and JYQ-107 (Scheme 2). We next investigated the ability of the probes to label and visualize PARK7. […] The SulfoCy5 probe JYQ-92 and Rhodamine110 probe JYQ-107 labeled PARK7 already at 1 μM, while the BodipyFL probe JYQ-93 was less efficient than the other probes as PARK7 labeling was only observed from 5 μM.
# All the labeling assays were performed in Tris buffer (50 mM Tris–HCl, 150 mM NaCl, 2 mM TCEP, pH 7.5). For labeling with the 8RK59 probe, 1 μM final concentrations of UCHL1 and PARK7 were individually or together incubated with 2 μM final concentrations of 8RK59 for 30 min at 37 °C, followed by protein visualization. For labeling with JYQ-92, JYQ-93, and JYQ-107, 1 μM final concentration of PARK7 was incubated with different concentrations (0, 0.1, 0.5, 1, 2, 5, and 10 μM) of the indicated probes for 1 h at 37 °C. […] These samples were resolved by SDS-PAGE using precast Bis-Tris gels (Invitrogen, NuPAGE) with MES SDS running buffer (Novex, NuPAGE).
# UCHL1 = biological target: T2, UCHL1 (Homo sapiens, UniProt P09936); assay: UCHL1 activity assay (Ub-Rho-Morpholine or Ub-AMC substrate); type: biochemical; conditions: UCHL1 1 nM, 1 h preincubation; read-out: UbRhoMP assay UCHL1 IC50
# T2 sequence (P09936 1-223): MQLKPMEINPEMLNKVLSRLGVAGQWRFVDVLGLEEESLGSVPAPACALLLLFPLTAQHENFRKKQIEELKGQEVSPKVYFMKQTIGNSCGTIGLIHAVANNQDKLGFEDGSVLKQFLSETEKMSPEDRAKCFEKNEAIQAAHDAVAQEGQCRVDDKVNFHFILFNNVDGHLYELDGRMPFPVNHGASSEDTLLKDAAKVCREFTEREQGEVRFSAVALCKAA
# Description: The assay was performed in a buffer containing 50 mM Tris·HCl, 100 mM NaCl at pH 7.5, 2.0 mM cysteine, 1 mg/mL 3-[(3-cholamidopropyl)dimethylammonio]propanesulfonic acid (CHAPS), and 0.5 mg/mL bovine serum albumin and conducted in a 384-well plate (Corning 3820) with a reaction volume 20 μL in triplicate. The compounds were dissolved in DMSO as 10, 1, and 0.1 mM stock solutions and were transferred to obtain a 12-point serial dilution of 0.05 to 200 μM. Next, UCHL1 (15 μL, final concentration of 1 nM) was dispensed with a Biotek MultiFlowFX liquid dispenser and incubated for 1 h, followed by dispensing the substrate Ub-Rho-Morpholine or Ub-AMC (5 μL, final concentration of 400 nM). The FI signal was monitored with a BMG Labtech PHERAstar plate reader (λex/em 487/535 nm or λex/em 350/450 nm) for 1 h. N-Ethylmaleimide (NEM, 10 mM) was used as a positive control (100% inhibition), and DMSO was used as a negative control (0% inhibition). All samples were normalized to the positive and negative controls and plotted against the inhibitor concentrations (in μM) using the built-in equation “[inhibitor] vs response – variable slope (four parameters), least-squares fit” with constraints “Bottom = 0” and “Top = 100” in GraphPad Prism 9.0.1 software to obtain the IC50 values.
# PARK7 [2] = biological target: T1, PARK7; assay: FP binding saturation experiment, kinact/KI of probe JYQ-107; parameters: GST (N, cleaved yes); made in house; host or cells: E. coli BL21(DE3) Rosetta2; conditions: FP probe binding to PARK7 (0 to 5 μM); slope of kobs vs PARK7 concentration; Figure S6D
# Description: First, the relation between the change in FP values for JYQ-107 binding to PARK7 was determined. We used a fixed concentration (20 nM) of JYQ-107, incubated it with different amounts of PARK7 (0 to 5 μM), and monitored the FP signal (λex/em 485/520 nm) over time (Supporting Information Figure S6A). The change in FP (ΔmP) was plotted against PARK7 concentration after different incubation times (Figure 5B, left, Supporting Information Figure S6B). […] The latter is expected, as covalent complex formation has a time-dependency, and thus, equilibrium binding values could not be determined for the FP reagent.[45] […] To this end, we calculated the Z’ value, a critical parameter used to assess the quality and HTS suitability of a given assay, for the used PARK7 concentrations and incubation times (Figure 5B, right, Supporting Information Figure S6C).[46] […]
# This assay was performed in the buffer containing 50 mM Tris–HCl, 150 mM NaCl, 2 mM TCEP, pH 7.5, and 1 mg/mL CHAPS and conducted in a 384-well plate (Corning 3820) with a reaction volume 20 μL in triplicate. A serial dilution of PARK7 from 0 to 5 μM (final concentration) was mixed with constant concentration JYQ-107 ([…]), and the increasing FP signal over time was measured at λex/em 480/520 nm using a PHERAstar (BMG Labtech) for 150 min. […]
smiles,measurement,setting,value
N#CN1CC[C@@H](C(=O)Nc2nc3c(s2)CN(C(=O)Cn2cc(CCCNC(=O)c4ccc(-c5c6ccc(=N)cc-6oc6cc(N)ccc56)c(C(=O)O)c4)nn2)CC3)C1 [JYQ-107],Probe concentration from which PARK7 labeling was observed,PARK7 [1],1 µM
same,IC50,UCHL1,18.5 µM
same,kinact/KI,PARK7 [2],1180 M⁻¹ s⁻¹
